Common to all, as to test: NCI tumour cell line growth inhibition, 48 h
Assay [1] has as its system K-562 leukemia.
The test system of assay [2] is CAKI-1 renal.
Assay [3] has as its system HCC-2998 colon.
Assay [4] deals with SK-MEL-28 melanoma.
Assay [5] has as its system KM12 colon.
Assay [6] has as its system SF-295 CNS.
For assay [7], the system named is RXF 393 renal.
The subject of assay [8] is A549 NSCLC.
Assay [9] has as its system HCT-15 colon.
In assay [10] the test system is OVCAR-5 ovarian.

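Five concentrations, 48 hours, 96-well plates. At the GI50, growth is halved. TGI: total growth inhibition.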 Where only a bound is given, the exact number is not on record here.

As for `Cc1ccc2c(c1)C(=O)c1c-2c(OCCCN(C)C)nc2ccccc12`, the GI50 in assay [1] is 1.11 µM; in assay [2] it was 4.1 µM; in assay [3], 2.18 µM; in assay [4], 1.76 µM; in [5] it was 1.22 µM; in [6], 2.87 µM. Further, the GI50 in [7] was 2.26 µM; in assay [8], 1.46 µM; in assay [9], 0.548 µM; in assay [10], 1.47 µM. Moreover, the TGI amounted to 2.98 µM in assay [1]; 18.2 µM in assay [2]; 11.8 µM in [3]; 3.41 µM in assay [4]; 2.72 µM in assay [5]; 14.1 µM in assay [6]. Besides, the TGI in assay [7] is 12.7 µM; in [8], 3.19 µM; in assay [9], 1.94 µM; in assay [10] it was 3.65 µM.
Regarding `CN(C)CCCC1(c2ccc(F)cc2)OCc2cc(-c3cc4ccccc4s3)ccc21` (stereo not given), the GI50 in assay [1] is 1.68 µM; in assay [2], 1.29 µM; in assay [3], 1.67 µM; in assay [4], 1.81 µM; in assay [5] it was 1.74 µM; in assay [6] it was 1.91 µM. Further, the GI50 in assay [7] was 1.42 µM; in [8] it was 1.73 µM; in [9], 1.69 µM; in [10], 1.58 µM. For the same compound, the TGI in assay [1] is 3.3 µM; in [2], 2.59 µM; in assay [3] it was 3.11 µM; in assay [4] it was 3.22 µM; in assay [5], 3.45 µM; in assay [6] it was 3.6 µM. In addition, the TGI was 2.86 µM in [7], 3.19 µM in [8], 3.13 µM in assay [9] and 2.92 µM in assay [10].
Take `O=CN1N=C(c2cccc(Nc3ccnc4cc(Cl)ccc34)c2)CC1c1ccccc1` (stereo not given): the GI50 in assay [1] was 0.301 µM; in [2], 0.348 µM; in assay [3], 1.03 µM; in [4], 0.65 µM; in assay [5], 0.315 µM; in assay [6], 0.306 µM. For the same compound, the GI50 is 0.336 µM in assay [7], 0.501 µM in assay [8], 0.511 µM in assay [9] and 1.5 µM in assay [10]. Moreover, the TGI in assay [1] came out at 10.5 µM; in assay [2], 7.54 µM; in assay [3], 5.57 µM; in assay [4], 24.6 µM; in assay [5] it was 12.7 µM; in assay [6], 1.66 µM. Moreover, the TGI in assay [7] was 3.58 µM; in [8], greater than 26.2 µM; in [9] it was greater than 100 µM; in assay [10] it was greater than 100 µM.
In the case of `O=C(C#Cc1ccccc1)C1=Cc2ccccc2OC1`, the TGI is greater than 100 µM in [1]; 3.47 µM in assay [2]; 19.6 µM in [3]; greater than 65.7 µM in assay [4]; 9.67 µM in assay [5]; 48.3 µM in [6]. For the same compound, the TGI in assay [7] was 9.78 µM; in assay [8], greater than 37.6 µM; in assay [9] it was 6.38 µM; in assay [10], 15 µM.
For the compound `CC(=O)O[C@H]1C(=O)[C@@]2(C)[C@H]([C@H](OC(=O)c3ccccc3)[C@]3(O)C[C@H](OC(=O)[C@H](OC(=O)OC[C@H]4COC(C)(C)O4)[C@@H](NC(=O)c4ccccc4)c4ccccc4)C(C)=C1C3(C)C)[C@]1(OC(C)=O)CO[C@@H]1C[C@@H]2O`, the GI50 in assay [1] was 0.0122 µM; in assay [2], 0.0885 µM; in assay [3], 0.00983 µM; in assay [4] it was greater than 33.3 µM; in [5], 0.00943 µM; in [6], 0.0365 µM. The GI50 in assay [7] was 0.0307 µM; in [8], 0.0295 µM; in assay [9], 0.228 µM; in assay [10] it was 0.0433 µM. The TGI in [1] is greater than 33.3 µM; in assay [2], greater than 33.3 µM; in assay [3], greater than 33.3 µM; in assay [4], greater than 33.3 µM; in [5] it was greater than 33.3 µM; in assay [6], 0.314 µM. Moreover, the TGI in [7] is 0.201 µM; in assay [8] it was greater than 33.3 µM; in assay [9] it was greater than 33.3 µM; in [10] it was greater than 33.3 µM.
For the compound `CCOC(=O)C1=C(C)N(NC(N)=O)C2(N)N(NC(N)=O)C(C)=C(C(=O)OCC)C12C(=O)OCC` (stereo not given), the TGI in assay [1], in assay [2], in assay [3], in [4], in [5] and in [6] was greater than 100 µM in each case. Besides, the TGI in assay [7], in [8], in assay [9] and in assay [10] was greater than 100 µM in each case.
As to `COc1ccc(/C=C2\SC(=Nc3ccccc3)NC2=O)cc1`, the GI50 in assay [1] is 2.31 µM; in assay [2], 3.98 µM; in assay [3], 10 µM; in assay [4] it was 8.06 µM; in [5], 4.37 µM; in assay [6] it was 4.6 µM. Further, the GI50 is 4.68 µM in [7], 4.74 µM in assay [8], 2.73 µM in assay [9] and 12.5 µM in [10]. Further, the TGI in assay [1] is greater than 100 µM; in assay [2] it was greater than 100 µM; in assay [3] it was greater than 100 µM; in [4], 44.8 µM; in assay [5] it was 22 µM; in assay [6], greater than 100 µM. For the same compound, the TGI was 26.8 µM in assay [7], 26.7 µM in assay [8], greater than 100 µM in assay [9] and greater than 100 µM in assay [10].
Regarding `C[n+]1c2ccccc2nc2ccccc21`, the GI50 is 1.86 µM in assay [1]; 2.09 µM in [2]; 2.11 µM in [3]; 1.59 µM in assay [4]; 2.93 µM in [5]; 1.54 µM in [6]. Moreover, the GI50 in [7] was 1.7 µM; in assay [8], 2.93 µM; in [9], 2.07 µM; in [10], 1.66 µM. The TGI in [1] was greater than 32.4 µM; in assay [2], 6.42 µM; in assay [3] it was 7.22 µM; in assay [4], 3.1 µM; in [5], 12.2 µM; in assay [6], 4.19 µM. The TGI turned out to be 4.29 µM in assay [7], 19.9 µM in [8], 10.8 µM in assay [9] and 3.56 µM in [10].

The values above are taken from PubChem BioAssay (NCI).
